Experimental data reported in patent publication US10206394B2, “Herbicidal compounds” (Syngenta Participations AG, priority 2014, dated 2019).
Where two headings read alike, the source gives them in different places.

How the values were obtained:
Assay in all cases: Glasshouse assay for herbicidal activity (pre- and post-emergence), percentage phytotoxicity
Assay type in all cases: in vivo
Avena fatua (AVEFA) = details: Avena fatua
How it was run: (§1)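 Potted test plants in standard soil received the compound pre-emergence (day 1) or post-emergence (about day 12). Evaluation: visual damage score from 0% (none) to 100% (total), 15 days after application post-emergence, 20 days pre-emergence.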

[1] = test system: Echinochloa crus-galli (ECHCG); details: Echinochloa crus-galli
How it was run: as §1

Lolium perenne (LOLPE) = details: Lolium perenne
How it was run: as §1

[2] = test system: Alopecurus myosuroides (ALOMY); details: Alopecurus myosuroides
How it was run: as §1

[3] = post-emergence, 360 h, POST-emergence, rate 250 g/ha, visual score 15 DAA (100%=total damage, 0%=no damage), read-out: Post-emergence herbicidal activity (percentage phytotoxicity) AVEFA POST
[4] = pre-emergence, 480 h, PRE-emergence, rate 250 g/ha, visual score 20 DAA (100%=total damage, 0%=no damage), read-out: Pre-emergence herbicidal activity (percentage phytotoxicity) AVEFA PRE
[5] = post-emergence, 360 h, POST-emergence, rate 250 g/ha, visual score 15 DAA (100%=total damage, 0%=no damage), read-out: Post-emergence herbicidal activity (percentage phytotoxicity) ECHCG POST
[6] = pre-emergence, 480 h, PRE-emergence, rate 250 g/ha, visual score 20 DAA (100%=total damage, 0%=no damage), read-out: Pre-emergence herbicidal activity (percentage phytotoxicity) ECHCG PRE
[7] = post-emergence, 360 h, POST-emergence, rate 250 g/ha, visual score 15 DAA (100%=total damage, 0%=no damage), read-out: Post-emergence herbicidal activity (percentage phytotoxicity) LOLPE POST
[8] = pre-emergence, 480 h, PRE-emergence, rate 250 g/ha, visual score 20 DAA (100%=total damage, 0%=no damage), read-out: Pre-emergence herbicidal activity (percentage phytotoxicity) LOLPE PRE
[9] = post-emergence, 360 h, POST-emergence, rate 250 g/ha, visual score 15 DAA (100%=total damage, 0%=no damage), read-out: Post-emergence herbicidal activity (percentage phytotoxicity) ALOMY POST
[10] = pre-emergence, 480 h, PRE-emergence, rate 250 g/ha, visual score 20 DAA (100%=total damage, 0%=no damage), read-out: Pre-emergence herbicidal activity (percentage phytotoxicity) ALOMY PRE
[11] = post-emergence, 360 h, 250 g/ha, post-emergence, 15 DAA, visual assessment (100%=total damage, 0%=no damage), read-out: Post-emergence herbicidal activity (percentage phytotoxicity) AVEFA POST
[12] = pre-emergence, 480 h, 250 g/ha, pre-emergence, 20 DAA, visual assessment (100%=total damage, 0%=no damage), read-out: Pre-emergence herbicidal activity (percentage phytotoxicity) AVEFA PRE
[13] = post-emergence, 360 h, 250 g/ha, post-emergence, 15 DAA, visual assessment (100%=total damage, 0%=no damage), read-out: Post-emergence herbicidal activity (percentage phytotoxicity) ECHCG POST
[14] = pre-emergence, 480 h, 250 g/ha, pre-emergence, 20 DAA, visual assessment (100%=total damage, 0%=no damage), read-out: Pre-emergence herbicidal activity (percentage phytotoxicity) ECHCG PRE
[15] = post-emergence, 360 h, 250 g/ha, post-emergence, 15 DAA, visual assessment (100%=total damage, 0%=no damage), read-out: Post-emergence herbicidal activity (percentage phytotoxicity) LOLPE POST
[16] = pre-emergence, 480 h, 250 g/ha, pre-emergence, 20 DAA, visual assessment (100%=total damage, 0%=no damage), read-out: Pre-emergence herbicidal activity (percentage phytotoxicity) LOLPE PRE
[17] = post-emergence, 360 h, 250 g/ha, post-emergence, 15 DAA, visual assessment (100%=total damage, 0%=no damage), read-out: Post-emergence herbicidal activity (percentage phytotoxicity) ALOMY POST
[18] = pre-emergence, 480 h, 250 g/ha, pre-emergence, 20 DAA, visual assessment (100%=total damage, 0%=no damage), read-out: Pre-emergence herbicidal activity (percentage phytotoxicity) ALOMY PRE
[19] = post-emergence, 360 h, Rate 250 g/ha, post-emergence, visual assessment 15 DAA, 100%=total damage, 0%=no damage, read-out: Post-emergence herbicidal activity (percentage phytotoxicity) AVEFA POST
[20] = pre-emergence, 480 h, Rate 250 g/ha, pre-emergence, visual assessment 20 DAA, 100%=total damage, 0%=no damage, read-out: Pre-emergence herbicidal activity (percentage phytotoxicity) AVEFA PRE
[21] = post-emergence, 360 h, Rate 250 g/ha, post-emergence, visual assessment 15 DAA, 100%=total damage, 0%=no damage, read-out: Post-emergence herbicidal activity (percentage phytotoxicity) ECHCG POST
[22] = pre-emergence, 480 h, Rate 250 g/ha, pre-emergence, visual assessment 20 DAA, 100%=total damage, 0%=no damage, read-out: Pre-emergence herbicidal activity (percentage phytotoxicity) ECHCG PRE
[23] = post-emergence, 360 h, Rate 250 g/ha, post-emergence, visual assessment 15 DAA, 100%=total damage, 0%=no damage, read-out: Post-emergence herbicidal activity (percentage phytotoxicity) LOLPE POST
[24] = pre-emergence, 480 h, Rate 250 g/ha, pre-emergence, visual assessment 20 DAA, 100%=total damage, 0%=no damage, read-out: Pre-emergence herbicidal activity (percentage phytotoxicity) LOLPE PRE
[25] = post-emergence, 360 h, Rate 250 g/ha, post-emergence, visual assessment 15 DAA, 100%=total damage, 0%=no damage, read-out: Post-emergence herbicidal activity (percentage phytotoxicity) ALOMY POST
[26] = pre-emergence, 480 h, Rate 250 g/ha, pre-emergence, visual assessment 20 DAA, 100%=total damage, 0%=no damage, read-out: Pre-emergence herbicidal activity (percentage phytotoxicity) ALOMY PRE

| Compound | pest or weed control at 250 g/ha (Avena fatua (AVEFA); [11]) [%] | pest or weed control at 250 g/ha (Avena fatua (AVEFA); [12]) [%] | pest or weed control at 250 g/ha [1, 13] [%] | pest or weed control at 250 g/ha [1, 14] [%] | pest or weed control at 250 g/ha (Lolium perenne (LOLPE); [15]) [%] | pest or weed control at 250 g/ha (Lolium perenne (LOLPE); [16]) [%] | pest or weed control at 250 g/ha [2, 17] [%] | pest or weed control at 250 g/ha [2, 18] [%] | pest or weed control at 250 g/ha (Avena fatua (AVEFA); [19]) [%] | pest or weed control at 250 g/ha (Avena fatua (AVEFA); [20]) [%] | pest or weed control at 250 g/ha [1, 21] [%] | pest or weed control at 250 g/ha [1, 22] [%] | pest or weed control at 250 g/ha (Lolium perenne (LOLPE); [23]) [%] | pest or weed control at 250 g/ha (Lolium perenne (LOLPE); [24]) [%] | pest or weed control at 250 g/ha [2, 25] [%] | pest or weed control at 250 g/ha [2, 26] [%] | other results |
| --- | --- | --- | --- | --- | --- | --- | --- | --- | --- | --- | --- | --- | --- | --- | --- | --- | --- |
| CC#Cc1cc(C)c(C2C(=O)CC(CC(=O)NCc3cccc(F)c3)C2=O)c(C)c1 (centres unmarked) [Compound B183] | – | – | – | – | – | – | – | – | – | – | – | – | – | – | – | – | pest or weed control at 250 g/ha (Avena fatua (AVEFA); [3]): 100%; pest or weed control at 250 g/ha (Avena fatua (AVEFA); [4]): 90%; pest or weed control at 250 g/ha [1, 5]: 100%; pest or weed control at 250 g/ha [1, 6]: 100%; pest or weed control at 250 g/ha (Lolium perenne (LOLPE); [7]): 90%; pest or weed control at 250 g/ha (Lolium perenne (LOLPE); [8]): 100%; pest or weed control at 250 g/ha [2, 9]: 100%; pest or weed control at 250 g/ha [2, 10]: 100% |
| Cc1cc(C)c(C2C(=O)CC(CC(=O)NC(C)(C)C3CC3)C2=O)c(C)c1 (centres unmarked) [Compound B65] | 50 | 60 | 70 | 90 | 70 | 80 | 70 | 80 | – | – | – | – | – | – | – | – | – |
| CC#CC(C)(C)NC(=O)CC1CC(=O)C(c2c(C)cc(C)cc2C)C1=O (centres unmarked) [Compound B35] | 70 | 0 | 70 | 80 | 70 | 80 | 80 | 90 | – | – | – | – | – | – | – | – | – |
| Cc1cc(-c2ncc(Cl)cc2F)cc(C)c1C1C(=O)CC(CC(=O)NC2CCCC2)C1=O (centres unmarked) [Compound B125] | 100 | 40 | 100 | 100 | 100 | 100 | 90 | 80 | – | – | – | – | – | – | – | – | – |
| C=CC(C)NC(=O)CC1CC(=O)C(c2c(C)cc(-c3ccc(Cl)cn3)cc2C)C1=O (centres unmarked) [Compound B365] | – | – | – | – | – | – | – | – | 90 | 90 | 100 | 100 | 90 | 100 | 90 | 100 | – |
| C=CCNC(=O)CC1CC(=O)C(c2c(C)cc(/C=C/C)cc2CC)C1=O (centres unmarked) [Compound B193] | – | – | – | – | – | – | – | – | – | – | – | – | – | – | – | – | pest or weed control at 250 g/ha (Avena fatua (AVEFA); [3]): 100%; pest or weed control at 250 g/ha (Avena fatua (AVEFA); [4]): 90%; pest or weed control at 250 g/ha [1, 5]: 100%; pest or weed control at 250 g/ha [1, 6]: 100%; pest or weed control at 250 g/ha (Lolium perenne (LOLPE); [7]): 100%; pest or weed control at 250 g/ha (Lolium perenne (LOLPE); [8]): 100%; pest or weed control at 250 g/ha [2, 9]: 100%; pest or weed control at 250 g/ha [2, 10]: 100% |
| CCN(C)C(=O)CC1CC(=O)C(c2c(C)cc(-c3ccc(Cl)cn3)cc2C)C1=O (centres unmarked) [Compound B367] | – | – | – | – | – | – | – | – | 100 | 100 | 100 | 100 | 100 | 100 | 90 | 90 | – |
| Cc1cc(-c2ncc(Cl)cn2)cc(C)c1C1=C(OC(=O)C(C)(C)C)CC(CC(=O)NC(C)(C)C)C1=O (centres unmarked) [Compound P3] | – | – | – | – | – | – | – | – | – | – | – | – | – | – | – | – | pest or weed control at 250 g/ha (Avena fatua (AVEFA); post-emergence, 360 h, post-emergence, 250 g/ha, 15 DAA, visual score (100%=total damage; 0%=no damage), read-out: AVEFA POST herbicidal activity (percentage phytotoxicity)): 90%; pest or weed control at 250 g/ha (Avena fatua (AVEFA); pre-emergence, 480 h, pre-emergence, 250 g/ha, 20 DAA, visual score (100%=total damage; 0%=no damage), read-out: AVEFA PRE herbicidal activity (percentage phytotoxicity)): 80%; pest or weed control at 250 g/ha ([1]; post-emergence, 360 h, post-emergence, 250 g/ha, 15 DAA, visual score (100%=total damage; 0%=no damage), read-out: ECHCG POST herbicidal activity (percentage phytotoxicity)): 100%; pest or weed control at 250 g/ha ([1]; pre-emergence, 480 h, pre-emergence, 250 g/ha, 20 DAA, visual score (100%=total damage; 0%=no damage), read-out: ECHCG PRE herbicidal activity (percentage phytotoxicity)): 100%; pest or weed control at 250 g/ha (Lolium perenne (LOLPE); post-emergence, 360 h, post-emergence, 250 g/ha, 15 DAA, visual score (100%=total damage; 0%=no damage), read-out: LOLPE POST herbicidal activity (percentage phytotoxicity)): 100%; pest or weed control at 250 g/ha (Lolium perenne (LOLPE); pre-emergence, 480 h, pre-emergence, 250 g/ha, 20 DAA, visual score (100%=total damage; 0%=no damage), read-out: LOLPE PRE herbicidal activity (percentage phytotoxicity)): 100%; pest or weed control at 250 g/ha ([2]; post-emergence, 360 h, post-emergence, 250 g/ha, 15 DAA, visual score (100%=total damage; 0%=no damage), read-out: ALOMY POST herbicidal activity (percentage phytotoxicity)): 100%; pest or weed control at 250 g/ha ([2]; pre-emergence, 480 h, pre-emergence, 250 g/ha, 20 DAA, visual score (100%=total damage; 0%=no damage), read-out: ALOMY PRE herbicidal activity (percentage phytotoxicity)): 100% |
| Cc1cc(-c2ncc(Cl)cn2)cc(C)c1C1C(=O)CC(CC(=O)N(C)C(C)(C)C)C1=O (centres unmarked) [Compound B348] | – | – | – | – | – | – | – | – | 100 | 80 | 100 | 100 | 100 | 90 | 100 | 80 | – |
| CCCNC(=O)CC1CC(=O)C(c2c(C)cccc2CC)C1=O (centres unmarked) [Compound B150] | 100 | 90 | 100 | 100 | 100 | 100 | 100 | 100 | – | – | – | – | – | – | – | – | – |
